Legend:
Cathepsin K = target: T1, Cathepsin K (Homo sapiens, UniProt P43235); assay: Inhibition of cathepsin K
T1 sequence (P43235 whole entry): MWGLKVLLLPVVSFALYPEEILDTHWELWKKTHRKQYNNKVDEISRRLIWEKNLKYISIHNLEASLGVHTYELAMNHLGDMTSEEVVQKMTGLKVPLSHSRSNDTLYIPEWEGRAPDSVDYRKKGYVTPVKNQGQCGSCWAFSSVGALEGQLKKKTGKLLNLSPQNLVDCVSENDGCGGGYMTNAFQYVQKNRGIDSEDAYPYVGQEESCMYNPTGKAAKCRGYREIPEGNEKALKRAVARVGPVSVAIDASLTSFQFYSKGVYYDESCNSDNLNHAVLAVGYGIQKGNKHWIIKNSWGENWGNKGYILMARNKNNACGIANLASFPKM

Procathepsin L = Procathepsin L (Homo sapiens, UniProt P07711); assay: Inhibition of cathepsin L
[1] = AUC in Wistar rat at 10 mg/kg, po; assay type: ADME, organism-based; design: dose 10 mg/kg, route oral; conditions: plasma
[2] = Half life in Wistar rat at 10 mg/kg. po; assay type: ADME, organism-based; design: dose 10 mg/kg, route oral; conditions: in vivo
[3] = Tmax in Wistar rat at 10 mg/kg. po; assay type: ADME, organism-based; design: dose 10 mg/kg, route oral; conditions: in vivo
[4] = Cmax in Wistar rat at 10 mg/kg. po; assay type: ADME, organism-based; design: dose 10 mg/kg, route oral; conditions: in vivo
Cathepsin S = Cathepsin S (Homo sapiens, UniProt P25774)
Chain of Cathepsin S (P25774 whole entry): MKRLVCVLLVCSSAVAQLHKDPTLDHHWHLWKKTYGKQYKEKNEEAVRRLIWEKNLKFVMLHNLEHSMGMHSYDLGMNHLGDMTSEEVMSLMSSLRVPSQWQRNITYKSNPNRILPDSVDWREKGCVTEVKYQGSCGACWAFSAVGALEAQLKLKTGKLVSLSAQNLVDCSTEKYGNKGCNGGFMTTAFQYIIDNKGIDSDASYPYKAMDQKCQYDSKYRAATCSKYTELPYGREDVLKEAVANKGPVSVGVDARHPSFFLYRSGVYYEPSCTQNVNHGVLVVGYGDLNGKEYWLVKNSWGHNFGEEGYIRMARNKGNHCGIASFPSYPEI
Description: Inhibition of cathepsin S

Chain of Procathepsin L (P07711 whole entry): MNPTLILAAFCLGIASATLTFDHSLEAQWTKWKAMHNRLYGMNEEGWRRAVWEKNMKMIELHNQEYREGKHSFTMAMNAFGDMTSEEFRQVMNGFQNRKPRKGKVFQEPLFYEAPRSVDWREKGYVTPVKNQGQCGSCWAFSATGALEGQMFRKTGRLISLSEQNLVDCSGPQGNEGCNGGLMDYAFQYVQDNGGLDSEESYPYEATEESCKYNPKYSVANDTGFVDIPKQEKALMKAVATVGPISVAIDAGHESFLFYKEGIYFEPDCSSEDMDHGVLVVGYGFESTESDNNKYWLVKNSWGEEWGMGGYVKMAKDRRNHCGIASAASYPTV

| SMILES | Ki (Cathepsin K) | Ki (Procathepsin L) | AUC [1] | half-life [2] | Tmax [3] | Cmax [4] | Ki (Cathepsin S) |
| --- | --- | --- | --- | --- | --- | --- | --- |
| CC(C)[C@@H](CNc1ccc(OC(F)(F)F)cc1)NC(=O)[C@@H](CC(=O)N1CCOCC1)c1ccccc1 | 11.5 µM | 11.5 µM | 1.91 µM·h | 55.2 min | 0.7 h | 647 nM | 25 nM |
| C[C@@H](CNc1ccc(OC(F)(F)F)cc1)NC(=O)[C@@H](CC(=O)N1CCOCC1)c1ccc(C(F)(F)F)cc1 | > 100 µM | > 100 µM | – | – | – | – | – |
| CC(C)[C@@H](CNc1ccc(OC(F)(F)F)cc1)NC(=O)[C@@H](CC(=O)N1CCOCC1)c1ccc(Cl)cc1 | > 100 µM | > 100 µM | 2.82 µM·h | 109 min | 2 h | 720 nM | – |
| CC[C@@H](CNc1ccc(OC(F)(F)F)cc1)NC(=O)[C@H](CCc1ccccc1)CC(=O)N1CCOCC1 | 0.291 µM | 0.588 µM | – | – | – | – | 60 nM |
| Cc1ccc([C@H](CC(=O)N2CCOCC2)C(=O)N[C@H](CNc2ccc(OC(F)(F)F)cc2)C(C)C)cc1 | > 30 µM | > 100 µM | – | – | – | – | 134 nM |
| O=C(C[C@H](CC1CCCCC1)C(=O)N1CCOCC1)NCCNc1ccc(F)cc1 | > 100 µM | > 100 µM | – | – | – | – | > 100000 nM |
| C[C@@H](CNc1ccc(OC(F)(F)F)cc1)NC(=O)[C@H](CCC(C)(C)C)CC(=O)N1CCOCC1 | > 100 µM | > 100 µM | – | – | – | – | – |
| CC(C)[C@@H](CNc1ccc(OC(F)(F)F)cc1)NC(=O)[C@H](CCCc1ccccc1)CC(=O)N1CCOCC1 | 2.12 µM | – | – | – | – | – | 14 nM |
| C[C@@H](CN1CCc2cc(F)ccc21)NC(=O)[C@@H](CC(=O)N1CCOCC1)Cc1ccccc1 | > 30 µM | 8.86 µM | – | – | – | – | > 24000 nM |
| CC(C)[C@@H](CNc1ccc(OC(F)(F)F)cc1)NC(=O)[C@@H](CC(=O)N1CCOCC1)c1ccc(F)cc1 | 11.5 µM | 11.5 µM | 1.87 µM·h | 58.2 min | 1.67 h | 629 nM | 24 nM |
| O=C(NCCNc1ccc(F)cc1)[C@H](CC(=O)N1CCOCC1)CC1CCCCC1 | > 100 µM | > 100 µM | – | – | – | – | > 100000 nM |
| O=C(N[C@@H](CCc1ccccc1)CNc1ccc(OC(F)(F)F)cc1)[C@@H](CC(=O)N1CCOCC1)c1ccccc1 | 0.71 µM | – | – | – | – | – | 37 nM |
| CC(C)[C@@H](CNc1ccc(OC(F)(F)F)cc1)NC(=O)[C@@H](CC(=O)N1CCOCC1)c1cccc(C(F)(F)F)c1 | > 100 µM | > 30 µM | – | – | – | – | 18500 nM |
| C[C@@H](CNc1ccc(OC(F)(F)F)cc1)NC(=O)[C@@H](CC(=O)N1CCOCC1)CC(C)(C)C | 2.33 µM | > 100 µM | – | – | – | – | – |
| COc1ccc([C@H](CC(=O)N2CCOCC2)C(=O)N[C@H](CNc2ccc(OC(F)(F)F)cc2)C(C)C)cc1 | > 30 µM | > 65 µM | 2.04 µM·h | 63.6 min | 1 h | 789 nM | – |
| O=C(NCCNc1ccc(OC(F)(F)F)cc1)[C@@H](CC(=O)N1CCOCC1)c1ccc(C(F)(F)F)cc1 | > 100 µM | – | – | – | – | – | – |
| O=C(NCCN1CCc2cc(F)ccc21)[C@H](CC1CCCCC1)NC(=O)N1CCOCC1 | – | – | 0.312 µM·h | 67.2 min | 0.33 h | 140 nM | – |
| CC(C)[C@@H](CNc1ccc(OC(F)(F)F)cc1)NC(=O)[C@@H](CC(=O)N1CCOCC1)c1ccc(C(F)(F)F)cc1 | > 100 µM | > 100 µM | 4.63 µM·h | 136 min | 2 h | 946 nM | 43 nM |
| O=C(N[C@H](CNc1ccc(OC(F)(F)F)cc1)c1ccccc1)[C@@H](CC(=O)N1CCOCC1)c1ccccc1 | 10.5 µM | – | – | – | – | – | 261 nM |
| C[C@@H](CN1CCc2cc(F)ccc21)NC(=O)[C@@H](CC(=O)N1CCOCC1)CC1CCCCC1 | – | – | 0.048 µM·h | 67.2 min | 0.42 h | 24 nM | – |
| CC(C)[C@@H](CNc1ccc(OC(F)(F)F)cc1)NC(=O)[C@@H](CC(=O)N1CCOCC1)c1ccccc1C(F)(F)F | > 100 µM | > 100 µM | – | – | – | – | > 100000 nM |
| O=C(N[C@H](CNc1ccc(OC(F)(F)F)cc1)C1CC1)[C@@H](CC(=O)N1CCOCC1)c1ccc(C(F)(F)F)cc1 | > 100 µM | > 100 µM | – | – | – | – | 616 nM |
| O=C(C[C@@H](CC1CCCCC1)C(=O)N1CCOCC1)NCCNc1ccc(F)cc1 | > 100 µM | > 100 µM | – | – | – | – | 1720 nM |
| CC(C)[C@@H](CNc1ccc(OC(F)(F)F)cc1)NC(=O)[C@H](CCc1ccccc1)CC(=O)N1CCOCC1 | 0.184 µM | 0.372 µM | – | – | – | – | 27 nM |

The next lines start with the values.

| Ki (Cathepsin K) | Ki (Procathepsin L) | AUC [1] | half-life [2] | Tmax [3] | Cmax [4] | Ki (Cathepsin S) | SMILES |
| --- | --- | --- | --- | --- | --- | --- | --- |
| 0.26 µM | – | – | – | – | – | 5 nM | CS(=O)(=O)CC[C@@H](CNc1ccc(OC(F)(F)F)cc1)NC(=O)[C@@H](CC(=O)N1CCOCC1)CC1CCCCC1 |
| 1.14 µM | – | – | – | – | – | 38 nM | CC(C)[C@@H](CNc1ccc(OC(F)(F)F)cc1)NC(=O)[C@@H](CC(=O)N1CCOCC1)CC1CCCC1 |
| 1.48 µM | 0.636 µM | – | – | – | – | 18 nM | O=C(N[C@@H](CCc1ccccc1)CNc1ccc(OC(F)(F)F)cc1)[C@@H](CC(=O)N1CCOCC1)CC1CCCCC1 |
| 5.41 µM | – | – | – | – | – | 69 nM | CS(=O)(=O)CC[C@H](CNc1ccc(OC(F)(F)F)cc1)NC(=O)[C@@H](CC(=O)N1CCOCC1)CC1CCCCC1 |
| 0.557 µM | 0.285 µM | 0.752 µM·h | 73.8 min | 1.83 h | 220 nM | 13 nM | CCC[C@@H](CNc1ccc(OC(F)(F)F)cc1)NC(=O)[C@@H](CC(=O)N1CCOCC1)CC1CCCCC1 |
| 0.217 µM | 2.68 µM | – | – | – | – | 12 nM | CCC[C@@H](CNc1ccc(OC(F)(F)F)cc1)NC(=O)[C@@H](CC(=O)N1CCOCC1)CC1CCCC1 |
| > 100 µM | > 30 µM | – | – | – | – | 194 nM | O=C(NCCNc1ccc(OC(F)(F)F)cc1)[C@@H](CC(=O)N1CCOCC1)CC1CCCCC1 |
| 3.71 µM | > 30 µM | – | – | – | – | 95 nM | C[C@@H](CNc1ccc(OC(F)(F)F)cc1)NC(=O)[C@H](CCC1CCCCC1)CC(=O)N1CCOCC1 |
| 0.907 µM | 0.267 µM | – | – | – | – | – | CC[C@@H](CNc1ccc(OC(F)(F)F)cc1)NC(=O)[C@@H](CC(=O)N1CCOCC1)CC1CCCCC1 |
| > 30 µM | 2.31 µM | – | – | – | – | 200 nM | O=C(N[C@@H](CCc1ccccc1)CNc1ccc(OC(F)(F)F)cc1)[C@H](CCC1CCCC1)CC(=O)N1CCOCC1 |
| 24.3 µM | 18.9 µM | 2.78 µM·h | 52.2 min | 1.5 h | 983 nM | 28 nM | C[C@@H](CNc1ccc(OC(F)(F)F)cc1)NC(=O)[C@@H](CC(=O)N1CCOCC1)CC1CCCCC1 |
| 0.995 µM | – | 0.831 µM·h | 63.6 min | 1.7 h | 241 nM | 11 nM | CC(C)[C@@H](CNc1ccc(OC(F)(F)F)cc1)NC(=O)[C@@H](CC(=O)N1CCOCC1)CC1CCCCC1 |
| > 30 µM | 3.52 µM | 2.77 µM·h | 73.2 min | 2 h | 815 nM | 62 nM | O=C(N[C@H](CNc1ccc(OC(F)(F)F)cc1)c1ccccc1)[C@@H](CC(=O)N1CCOCC1)CC1CCCCC1 |
| > 26.4 µM | – | – | – | – | – | 11 nM | CC(C)[C@@H](CNc1ccc(OC(F)(F)F)cc1)NC(=O)[C@H](CCC1CCCC1)CC(=O)N1CCOCC1 |
| 3.71 µM | > 30 µM | 0.806 µM·h | 40.8 min | 1 h | 318 nM | – | C[C@@H](CNc1ccc(OC(F)(F)F)cc1)NC(=O)[C@@H](CC(=O)N1CCOCC1)CC1CCCC1 |
| > 30 µM | > 30 µM | – | – | – | – | 1370 nM | O=C(NCCNc1ccc(F)cc1)[C@@H](CC(=O)N1CCOCC1)CC1CCCCC1 |

Reference: ChEMBL document CHEMBL1139902, “Synthesis and SAR of succinamide peptidomimetic inhibitors of cathepsin S” (Bioorg Med Chem Lett, 2007)
